The values below come from article PMC8237267 (Journal of Medicinal Chemistry, 2021).

Values joined by “and” are separate entries in the source; they are usually repeats but may differ in a detail not shown here. Identical values can stand only once. Like-named read-outs stand apart in the source and are kept apart here.

The subject of one series is MV4-11. Briefly: Cytotoxicity assay (Cell Titer-Blue, 72 h). It is filed as cell-based. The settings on record: for IC50: Homo sapiens.
For a further series, the system named is MRC-9. Briefly: Cytotoxicity assay (Cell Titer-Blue, 72 h). It is filed as cell-based.
A further series deals with T1, HDAC11 (Homo sapiens, UniProt Q96DB2).
T1 construct: The full-length human HDACs were recombinantly expressed and purified from SF9 insect cells; host or cells: SF9 insect cells
T1 sequence (Q96DB2 1-347): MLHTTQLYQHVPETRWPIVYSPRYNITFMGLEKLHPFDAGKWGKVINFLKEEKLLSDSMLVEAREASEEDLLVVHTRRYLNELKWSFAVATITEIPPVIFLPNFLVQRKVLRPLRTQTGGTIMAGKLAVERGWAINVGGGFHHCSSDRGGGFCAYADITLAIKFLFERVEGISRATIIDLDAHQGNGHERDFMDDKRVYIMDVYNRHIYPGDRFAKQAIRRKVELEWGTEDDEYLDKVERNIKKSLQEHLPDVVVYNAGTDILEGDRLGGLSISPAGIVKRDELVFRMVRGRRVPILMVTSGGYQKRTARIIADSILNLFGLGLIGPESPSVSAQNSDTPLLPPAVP
Briefly: HDAC EMSA activity assay (Nanosyn). It is filed as biochemical. The settings on record: recombinant enzyme, read-out: In vitro IC50 HDAC11.

For a further series, the target named is T2, HDAC8 (Homo sapiens, UniProt Q9BY41).
T2 construct: The full-length human HDACs were recombinantly expressed and purified from SF9 insect cells; host or cells: SF9 insect cells
T2 sequence (Q9BY41 1-377): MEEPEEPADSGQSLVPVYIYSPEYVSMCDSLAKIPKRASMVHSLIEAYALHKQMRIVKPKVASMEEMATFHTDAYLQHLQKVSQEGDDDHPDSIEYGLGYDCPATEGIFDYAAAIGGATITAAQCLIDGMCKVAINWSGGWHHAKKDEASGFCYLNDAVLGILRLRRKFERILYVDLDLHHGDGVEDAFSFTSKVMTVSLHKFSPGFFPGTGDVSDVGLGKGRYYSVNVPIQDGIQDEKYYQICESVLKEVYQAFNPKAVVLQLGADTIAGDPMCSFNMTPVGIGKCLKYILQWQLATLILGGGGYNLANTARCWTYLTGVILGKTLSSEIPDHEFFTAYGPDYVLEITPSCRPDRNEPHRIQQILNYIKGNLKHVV
The series can be described thus: HDAC EMSA activity assay (Nanosyn). The settings on record: for IC50: recombinant enzyme, EMSA (Nanosyn), read-out: In vitro IC50 HDAC8. Format: biochemical.

A further series concerns the target T3, HDAC3 (Homo sapiens, UniProt O15379).
T3 construct: The full-length human HDACs were recombinantly expressed and purified from SF9 insect cells; host or cells: SF9 insect cells
Briefly: HDAC EMSA activity assay (Nanosyn). It is filed as biochemical. The settings on record: recombinant enzyme, read-out: In vitro IC50 HDAC3.

For another series, the target named is T4, HDAC6 (Homo sapiens, UniProt Q9UBN7).
T4 sequence (Q9UBN7 1-1215): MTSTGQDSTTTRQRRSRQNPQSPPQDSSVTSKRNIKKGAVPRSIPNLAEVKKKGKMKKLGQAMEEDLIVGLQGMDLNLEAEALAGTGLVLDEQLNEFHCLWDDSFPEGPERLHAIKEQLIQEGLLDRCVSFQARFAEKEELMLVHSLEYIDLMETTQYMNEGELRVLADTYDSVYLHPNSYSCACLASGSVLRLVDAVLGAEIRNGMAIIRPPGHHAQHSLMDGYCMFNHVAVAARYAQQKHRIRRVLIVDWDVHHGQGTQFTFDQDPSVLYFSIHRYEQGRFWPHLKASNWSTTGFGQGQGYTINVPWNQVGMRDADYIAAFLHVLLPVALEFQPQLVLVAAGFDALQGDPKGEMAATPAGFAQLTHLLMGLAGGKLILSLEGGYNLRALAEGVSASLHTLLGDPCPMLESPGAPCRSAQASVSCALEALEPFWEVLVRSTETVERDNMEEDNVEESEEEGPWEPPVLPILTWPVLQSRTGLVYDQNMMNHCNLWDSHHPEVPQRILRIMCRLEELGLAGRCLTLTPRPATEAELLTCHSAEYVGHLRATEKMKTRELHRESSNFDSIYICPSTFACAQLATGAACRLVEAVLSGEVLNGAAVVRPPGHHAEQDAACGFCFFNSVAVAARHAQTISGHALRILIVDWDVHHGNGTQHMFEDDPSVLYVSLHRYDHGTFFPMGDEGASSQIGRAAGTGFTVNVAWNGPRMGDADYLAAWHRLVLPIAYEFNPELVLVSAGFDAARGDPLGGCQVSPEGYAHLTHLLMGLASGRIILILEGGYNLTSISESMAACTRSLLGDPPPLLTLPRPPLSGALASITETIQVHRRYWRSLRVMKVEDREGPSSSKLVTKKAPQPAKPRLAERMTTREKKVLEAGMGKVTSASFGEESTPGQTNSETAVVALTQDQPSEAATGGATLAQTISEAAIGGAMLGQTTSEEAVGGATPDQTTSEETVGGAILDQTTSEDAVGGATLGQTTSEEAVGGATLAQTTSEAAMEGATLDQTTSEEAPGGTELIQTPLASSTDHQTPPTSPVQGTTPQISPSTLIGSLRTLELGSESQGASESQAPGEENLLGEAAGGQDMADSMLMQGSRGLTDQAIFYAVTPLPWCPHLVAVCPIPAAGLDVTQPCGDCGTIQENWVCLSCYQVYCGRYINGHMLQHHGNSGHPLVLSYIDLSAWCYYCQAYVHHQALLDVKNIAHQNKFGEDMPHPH
Briefly: HDAC EMSA activity assay (Nanosyn). It is filed as biochemical. On the set-up: The full-length human HDACs were recombinantly expressed and purified from SF9 insect cells; host or cells: SF9 insect cells. The settings on record: for HDAC6 fold-selectivity: over the next closest HDAC isoform tested, * = selectivity ≥ indicated value; for IC50: EMSA (Nanosyn).

Series [1] can be described thus: Glutathione stability / reactivity assay. It is filed as in vitro ADME. The settings on record: GSH adduct formation by LC/MS/MS; KT-531 up to 24 h. The method, then:
Although covalent modification of HDAC6 was not observed (Figure S2), the PFBS group is susceptible to nucleophilic aromatic substitution by biological nucleophiles. A previously described high-throughput in vitro glutathione-reactivity assay was conducted, where compounds were incubated in the presence of glutathione (GSH) and the formation of a GSH-compound adduct was monitored over time via LC/MS/MS.[50]
Compound was added to PBS and 5 mM GSH to reach a final concentration of 5 μM. […] Samples were vortexed and centrifuged for 45 min at 3220g. Aliquots were diluted by ultrapure water, and used for LC/MS/MS analysis. Peak area ratios were determined and percent compounds remaining was calculated by the following equation: [drawing 1] where peak area ratio (t min) is the peak area ratio of control and test compounds at t min; peak area ratio0min is the peak area ratio of control and test compounds at the zero time point. In vitro half-life (t1/2) = −(0.693/k).

[2] abbreviates: MV4-11 (AML), read-out: In cellulo IC50 MV4-11.
The mark [3] stands for this setting: MRC9, MRC-9 (healthy fibroblasts), read-out: In cellulo IC50 MRC-9.
The mark [4] stands for this setting: recombinant enzyme, read-out: In vitro IC50 HDAC6.

T3 sequence (O15379 whole entry): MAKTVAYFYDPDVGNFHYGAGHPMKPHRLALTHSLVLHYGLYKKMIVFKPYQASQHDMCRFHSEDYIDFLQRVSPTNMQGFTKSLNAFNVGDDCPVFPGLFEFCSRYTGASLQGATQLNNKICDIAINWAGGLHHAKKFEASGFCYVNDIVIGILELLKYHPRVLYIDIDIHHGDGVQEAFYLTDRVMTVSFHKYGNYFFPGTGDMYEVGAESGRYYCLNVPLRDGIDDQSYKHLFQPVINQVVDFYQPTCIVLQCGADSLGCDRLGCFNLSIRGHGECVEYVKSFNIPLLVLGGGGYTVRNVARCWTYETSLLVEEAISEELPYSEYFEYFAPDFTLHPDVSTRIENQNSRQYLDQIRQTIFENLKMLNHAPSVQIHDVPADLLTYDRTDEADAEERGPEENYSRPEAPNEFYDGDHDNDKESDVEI
T3 sequence (Q9Y618 395-489 partner limits assumed): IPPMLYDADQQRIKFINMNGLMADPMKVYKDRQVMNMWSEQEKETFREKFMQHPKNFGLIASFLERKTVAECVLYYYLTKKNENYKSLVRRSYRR

Take `COc1ccc(Cn2ccc3ccc(C(=O)NO)cc32)cc1` [PCI-34051, reference compound]: in the series with MV4-11, the “activity in MV4-11 cells” value is “no observable activity”. Further, in the series with MRC-9, the “activity in MRC9 cells” value is “no observable activity”.
Turning to `O=C(NO)c1ccc(CN(C2CC2)S(=O)(=O)c2c(F)cc(F)c(Cl)c2F)cc1` [Compound 12, 4-(((3-Chloro-N-cyclopropyl-2,4,6-trifluorophenyl)sulfonamido)methyl)-N-hydroxybenzamide], the IC50 on HDAC11 is over 1000 nM; with MV4-11 (setting [2]) it was 740 nM; on HDAC8, 201 nM; on HDAC3, over 1000 nM; with MRC-9 (setting [3]), over 20000 nM; on HDAC6 (setting [4]), 9 nM. Moreover, at HDAC6, the HDAC6 fold-selectivity is on record as 22.3 fold.
As for `CC(C)N(Cc1ccc(C(=O)NO)cc1)S(=O)(=O)c1c(F)c(F)c(F)c(F)c1F` [Compound 4, N-Hydroxy-4-(((2,3,4,5,6-pentafluoro-N-isopropylphenyl)sulfonamido)methyl)benzamide], the IC50 at HDAC11 is 941 nM; at HDAC8, 653 nM; at HDAC3, 932 nM; in the series on MRC-9 (setting [3]) it was over 10000 nM; at HDAC6 (setting [4]) it was 4 nM. Besides, the “reactivity with glutathione” value in series [1] was “react readily with glutathione”.
Turning to `O=C(NO)c1cccc(CN(C2CC2)S(=O)(=O)c2c(F)c(F)c(F)c(F)c2F)c1` [Compound 10, 3-(((N-Cyclopropyl-2,3,4,5,6-pentafluorophenyl)sulfonamido)methyl)-N-hydroxybenzamide], the IC50 on HDAC11 is over 1000 nM; in the series with MV4-11 (setting [2]), 1900 nM; at HDAC8 it was 108 nM; on HDAC3, over 1000 nM; in the series with MRC-9 (setting [3]), over 50000 nM; at HDAC6 (setting [4]), 488 nM. In addition, the “selectivity toward HDAC8” value on HDAC8 was found to be 4 fold.
As for `O=C(NO)c1ccc(CN(C2CC2)S(=O)(=O)c2c(F)c(Cl)c(F)c(Cl)c2F)cc1` [Compound 11, 4-(((3,5-Dichloro-N-cyclopropyl-2,4,6-trifluorophenyl)sulfonamido)methyl)-N-hydroxybenzamide], the IC50 at HDAC11 is 364 nM; with MV4-11 (setting [2]), 670 nM; on HDAC8, 214 nM; on HDAC3 it was over 1000 nM; with MRC-9 (setting [3]), over 50000 nM; on HDAC6 (setting [4]), 15 nM. Also, the HDAC6 fold-selectivity at HDAC6 is 14.3 fold.
In the case of `CN(Cc1ccc(C(=O)NO)cc1)S(=O)(=O)c1c(F)c(F)c(F)c(F)c1F` [Compound 3, N-Hydroxy-4-(((2,3,4,5,6-pentafluoro-N-methylphenyl)sulfonamido)methyl)benzamide], the IC50 on HDAC11 was 246 nM; on HDAC8 it was 184 nM; in the series on MRC-9 (setting [3]), over 30000 nM; on HDAC6 (setting [4]) it was 2 nM. For the same compound, the “reactivity with glutathione” value in series [1] is “react readily with glutathione”.
As for `O=C(NO)c1ccc(CN(C2CC2)S(=O)(=O)c2ccc(F)cc2)cc1` [Compound 7, 4-(((N-Cyclopropyl-4-fluorophenyl)sulfonamido)methyl)-N-hydroxybenzamide], the IC50 was over 1000 nM at HDAC11; 8690 nM with MV4-11 (setting [2]); 281 nM at HDAC8; 841 nM at HDAC3; over 50000 nM in the series with MRC-9 (setting [3]); 11 nM on HDAC6 (setting [4]). The HDAC6 fold-selectivity on HDAC6 was 25.5 fold.
In the case of `O=C(NO)c1ccc(CN(C2CC2)S(=O)(=O)c2c(F)cc(F)cc2F)cc1` [Compound 9, 4-(((N-Cyclopropyl-2,4,6-trifluorophenyl)sulfonamido)methyl)-N-hydroxybenzamide], the IC50 is over 1000 nM on HDAC11; 8940 nM in the series on MV4-11 (setting [2]); 315 nM at HDAC8; over 1000 nM at HDAC3; over 20000 nM in the series on MRC-9 (setting [3]); 8 nM at HDAC6 (setting [4]). Further, the HDAC6 fold-selectivity on HDAC6 was 39.4 fold.
Consider `CCCCN(Cc1ccc(C(=O)NO)cc1)C(=O)Nc1ccccc1` [Nexturastat, reference compound], for which, in the series with MV4-11 (setting [2]), the IC50 worked out at 1680 nM.
For the compound `O=C(NO)c1ccc(CN(C2CC2)S(=O)(=O)c2cc(F)c(F)c(F)c2)cc1` [Compound 8, 4-(((N-Cyclopropyl-3,4,5-trifluorophenyl)sulfonamido)methyl)-N-hydroxybenzamide], the IC50 on HDAC11 is over 1000 nM; in the series on MV4-11 (setting [2]), 5980 nM; at HDAC8, 273 nM; at HDAC3, over 1000 nM; in the series with MRC-9 (setting [3]), over 25000 nM; at HDAC6 (setting [4]) it was 14 nM. Also, the HDAC6 fold-selectivity at HDAC6 is 20 fold and 19.5 fold.
For the compound `O=C(CCCCCCNC(=O)c1cnc(N(c2ccccc2)c2ccccc2)nc1)NO` [Ricolinostat, reference compound], the IC50 in the series with MV4-11 (MV4-11, read-out: In cellulo IC50 MV4-11) is 810 nM; in the series on MRC-9 (MRC9, read-out: In cellulo IC50 MRC-9), over 20000 nM.
Turning to `O=C(NO)c1ccc(CN(C2CC2)S(=O)(=O)c2c(F)c(F)c(Cl)c(F)c2F)cc1` [Compound 13, 4-(((4-Chloro-N-cyclopropyl-2,3,5,6-tetrafluorophenyl)sulfonamido)methyl)-N-hydroxybenzamide], the IC50 is over 1000 nM at HDAC11; 1380 nM in the series on MV4-11 (setting [2]); over 1000 nM on HDAC8; over 1000 nM at HDAC3; over 30000 nM in the series with MRC-9 (setting [3]); 70 nM at HDAC6 (read-out: IC50 HDAC6). On HDAC6, the HDAC6 fold-selectivity is 14.3 fold and ≥ 14.3* fold.
Regarding `O=C(NO)c1ccc(CNS(=O)(=O)c2c(F)c(F)c(F)c(F)c2F)cc1` [Compound 2, N-Hydroxy-4-(((perfluorophenyl)sulfonamido)methyl)benzamide], the IC50 is over 1000 nM at HDAC11; over 1000 nM on HDAC8; over 1000 nM on HDAC3; over 25000 nM with MRC-9 (setting [3]); 389 nM at HDAC6 (read-out: IC50 HDAC6).
